Results on 33 compounds are retold here after US8183262B2, “Pyridine derivatives as mGluR2 antagonists” (Hoffmann-La Roche Inc., priority 2007, dated 2012).

With `O=S(=O)(NCCc1ccccc1)c1cccc(-c2cc(-c3nc(-c4ccc(C(F)(F)F)cc4)cc(C(F)(F)F)n3)ccn2)c1` [Example 406, N-Phenethyl-3-{4-[4-trifluoromethyl-6-(4-trifluoromethyl-phenyl)-pyrimidin-2-yl]-pyridin-2-yl}-benzenesulfonamide], the melting point – broadly, the temperature of the solid-liquid transition – came to 201 °C.
Next, `NS(=O)(=O)c1ccc(-c2cccc(-c3nc(-c4ccc(Cl)cc4Cl)cc(C(F)(F)F)n3)c2)s1` [Example 411, 5-{3-[4-(2,4-Dichloro-phenyl)-6-trifluoromethyl-pyrimidin-2-yl]-phenyl}-thiophene-2-sulfonic acid amide]: 237.5 °C.
Next, `CCCC(=O)NS(=O)(=O)c1cccc(-c2cccc(-c3cc(-c4ccc(C(F)(F)F)cc4)cc(C)n3)n2)c1` [Example 454, N-Butyryl-3-[6′-methyl-4′-(4-trifluoromethyl-phenyl)-[2,2′]bipyridinyl-6-yl]-benzenesulfonamide]: 188 °C; `Cc1cc(-c2ccc(C(F)(F)F)c(C)c2)nc(-n2cnc(-c3cnc(N)nc3)c2)n1` [Example 123, 5-{1-[4-Methyl-6-(3-methyl-4-trifluoromethyl-phenyl)-pyrimidin-2-yl]-1H-imidazol-4-yl}-pyrimidin-2-ylamine]: 248 °C.
For `Cc1cc(-c2cc(C(F)(F)F)nc(-c3nc(-c4ccc(S(N)(=O)=O)cc4)no3)n2)ccc1C(F)(F)F` [Example 128, 4-{5-[4-(3-Methyl-4-trifluoromethyl-phenyl)-6-trifluoromethyl-pyrimidin-2-yl]-[1,2,4]oxadiazol-3-yl}-benzenesulfonamide] the value was 261 °C; for `Cc1cc(-c2ccc(C(F)(F)F)c(C)c2)nc(-c2cccc(-c3ccc(S(N)(=O)=O)s3)c2)n1` [Example 417, 5-{3-[4-Methyl-6-(3-methyl-4-trifluoromethyl-phenyl)-pyrimidin-2-yl]-phenyl}-thiophene-2-sulfonic acid amide], 242 °C.
The compound `Nc1ccc(-c2cc(-c3nc(-c4ccc(C(F)(F)F)cc4)cc(C(F)(F)F)n3)ccn2)cn1` [Example 31, 4-[4-Trifluoromethyl-6-(4-trifluoromethyl-phenyl)-pyrimidin-2-yl]-[2,3′]bipyridinyl-6′-ylamine] gave a melting point of 226 °C.
Next, `Cc1cc(-c2ccc(C(F)(F)F)cc2)nc(-c2ccnc(-c3cccc(S(N)(=O)=O)c3)n2)c1` [Example 308, 3-{4-[4-Methyl-6-(4-trifluoromethyl-phenyl)-pyridin-2-yl]-pyrimidin-2-yl}-benzenesulfonamide]: greater than 250 °C; `Cc1cc(-c2ccc(Cl)c(Cl)c2)cc(-c2ccc(N3C=CC=CC3N)s2)n1` (stereo not drawn) [Example 254, 1-{5-[4-(3,4-Dichloro-phenyl)-6-methyl-pyridin-2-yl]-thiophen-2-yl}-pyridin-2-ylamine]: 180 °C; `Cc1cc(-c2ccc(C(F)(F)F)cc2)cc(-c2cccc(-c3cccc(S(=O)(=O)NC4CC4)c3)n2)n1` [Example 424, N-Cyclopropyl-3-[6′-methyl-4′-(4-trifluoromethyl-phenyl)-[2,2′]bipyridinyl-6-yl]-benzenesulfonamide]: 150 °C.
Next, `CCOc1cc(-c2cc(C(F)(F)F)nc(-n3cnc(-c4ccc(N)nc4)c3)n2)ccc1C(F)(F)F` [Example 87, 5-{1-[4-(3-Ethoxy-4-trifluoromethyl-phenyl)-6-trifluoromethyl-pyrimidin-2-yl]-1H-imidazol-4-yl}-pyridin-2-ylamine]: 266.5 °C; `Cc1cc(-c2ccc(C(F)(F)F)cc2)cc(-c2ccnc(-c3ccc(S(=O)(=O)NC(C)(C)C)s3)c2)n1` [Example 304, 5-[6-Methyl-4-(4-trifluoromethyl-phenyl)-[2,4′]bipyridinyl-2′-yl]-thiophene-2-sulfonic acid tert-butylamide]: 225 °C.
For `Cc1cc(-c2ccc(Cl)c(C)c2)nc(-c2cccc(-c3ccc(N)nc3)c2)n1` [Example 376, 5-{3-[4-(4-Chloro-3-methyl-phenyl)-6-methyl-pyrimidin-2-yl]-phenyl}-pyridin-2-ylamine] the value was 158 °C (dec.); for `Nc1ncc(-c2cccc(-c3cc(-c4ccc(Cl)cc4)cc(C(F)(F)F)n3)c2)cn1` [Example 234, 5-{3-[4-(4-Chloro-phenyl)-6-trifluoromethyl-pyridin-2-yl]-phenyl}-pyrimidin-2-ylamine], 239 °C; for `Nc1ccc(-c2cn(-c3nc(-c4ccc(C(F)(F)F)cc4)cc(C(F)(F)F)n3)cn2)cc1` [Example 111, 4-{1-[4-Trifluoromethyl-6-(4-trifluoromethyl-phenyl)-pyrimidin-2-yl]-1H-imidazol-4-yl}-phenylamine], 270 °C.
Regarding `Nc1ccc(-c2cn(-c3nc(-c4ccc(Cl)cc4)cc(C4CC4)n3)cn2)cn1` [Example 49, 5-{1-[4-(4-Chloro-phenyl)-6-cyclopropyl-pyrimidin-2-yl]-1H-imidazol-4-yl}-pyridin-2-ylamine], the melting point was 220 to 222 °C.
For `Nc1ccc(-c2cn(-c3nc(-c4ccc(Cl)cc4)cc(C(F)(F)F)n3)cn2)cn1` [Example 14, 5-{1-[4-(4-Chloro-phenyl)-6-trifluoromethyl-pyrimidin-2-yl]-1H-imidazol-4-yl}-pyridin-2-ylamine] the value was 254 °C; for `Cc1cc(-c2ccc(C(F)(F)F)cc2)cc(-c2cccc(-c3cccc(S(=O)(=O)NC(C)(C)C)c3)n2)n1` [Example 261, N-tert-Butyl-3-[6′-methyl-4′-(4-trifluoromethyl-phenyl)-[2,2′]bipyridinyl-6-yl]-benzenesulfonamide], 183 °C.
Next, `Nc1ccc(-c2noc(-c3cc(C(F)(F)F)cc(-c4ccc(C(F)(F)F)cc4)n3)n2)cn1` [Example 238, 5-{5-[4-Trifluoromethyl-6-(4-trifluoromethyl-phenyl)-pyridin-2-yl]-[1,2,4]oxadiazol-3-yl}-pyridin-2-ylamine]: 229 °C; `Cc1cc(-c2ccc(Cl)c(Cl)c2)nc(-n2cnc(-c3ccc(S(N)(=O)=O)cc3)c2)n1` [Example 199, 4-{1-[4-(3,4-Dichloro-phenyl)-6-methyl-pyrimidin-2-yl]-1H-imidazol-4-yl}-benzenesulfonamide]: 282.5 °C.
For `FC(F)(F)c1cc(-c2ccc(Cl)cc2)nc(-c2nc(-c3ccncc3)no2)n1` [Example 28, 4-(4-Chloro-phenyl)-2-(3-pyridin-4-yl-[1,2,4]oxadiazol-5-yl)-6-trifluoromethyl-pyrimidine] the value was 187.5 °C.
With `Cc1cc(-c2ccc(C(F)(F)F)cc2)nc(-c2cccc(-c3ccc(N)nc3)c2)n1` [Example 116, 5-{3-[4-Methyl-6-(4-trifluoromethyl-phenyl)-pyrimidin-2-yl]-phenyl}-pyridin-2-ylamine], the melting point came to 224 °C.
For `Cc1nc(-c2cnc(N)nc2)cn1-c1nc(-c2ccc(C(F)(F)F)cc2)cc(C(F)(F)F)n1` [Example 143, 5-{2-Methyl-1-[4-trifluoromethyl-6-(4-trifluoromethyl-phenyl)-pyrimidin-2-yl]-1H-imidazol-4-yl}-pyrimidin-2-ylamine] the value was 286.5 °C.
For `Cc1cc(-c2ccc(C(F)(F)F)cc2)nc(-c2nc(-c3cccc(S(N)(=O)=O)c3)no2)n1` [Example 126, 3-{5-[4-Methyl-6-(4-trifluoromethyl-phenyl)-pyrimidin-2-yl]-[1,2,4]oxadiazol-3-yl}-benzenesulfonamide] the value was 240.5 °C.
Regarding `Cc1cc(-c2ccc(C(F)(F)F)cc2)cc(-c2cccc(-c3cccc(S(=O)(=O)N4CCOCC4)c3)n2)n1` [Example 373, 6-Methyl-6′-[3-(morpholine-4-sulfonyl)-phenyl]-4-(4-trifluoromethyl-phenyl)-[2,2′]bipyridinyl], the melting point was found to be 216 °C.
For `Cc1cc(-c2ccc(Cl)cc2)cc(-c2cccc(-c3ccc(N)nc3)c2)n1` [Example 229, 5-{3-[4-(4-Chloro-phenyl)-6-methyl-pyridin-2-yl]-phenyl}-pyridin-2-ylamine], the melting point was in the range of 76 to 95 °C.
For `Nc1ccc(-c2cncc(-c3cc(-c4ccc(C(F)(F)F)cc4)cc(C4CC4)n3)c2)cn1` [Example 69, 6-Cyclopropyl-4-(4-trifluoromethyl-phenyl)-[2,3′;5′,3″]terpyridin-6″-ylamine] the value was 207 to 209 °C; for `Cc1cc(-c2ccc(Cl)c(Cl)c2)nc(-n2cnc(-c3ccc(N)nc3)c2)n1` [Example 145, 5-{1-[4-(3,4-Dichloro-phenyl)-6-methyl-pyrimidin-2-yl]-1H-imidazol-4-yl}-pyridin-2-ylamine], 213 °C.
`Nc1ncc(-c2noc(-c3nc(-c4ccc(C(F)(F)F)cc4)cc(C(F)(F)F)n3)n2)cn1` [Example 20, 5-{5-[4-Trifluoromethyl-6-(4-trifluoromethyl-phenyl)-pyrimidin-2-yl]-[1,2,4]oxadiazol-3-yl}-pyrimidin-2-ylamine]: the melting point stood at 216 °C.
Compound `Cc1cc(-c2ccc(Cl)cc2)nc(-c2nc(-c3ccc(N)nc3)no2)n1` [Example 137, 5-{5-[4-(4-Chloro-phenyl)-6-methyl-pyrimidin-2-yl]-[1,2,4]oxadiazol-3-yl}-pyridin-2-ylamine] came in with a melting point of 258 °C.
Next, `Cc1cc(-c2ccc(C(F)(F)F)cc2)cc(-c2nc(-c3ccc(N)nc3)no2)n1` [Example 236, 5-{5-[6-Methyl-4-(4-trifluoromethyl-phenyl)-pyridin-2-yl]-[1,2,4]oxadiazol-3-yl}-pyridin-2-ylamine]: 163 °C; `Cc1cc(-c2ccc(C(F)(F)F)cc2)nc(-c2cccc(-c3cccc(S(N)(=O)=O)c3)n2)c1` [Example 310, 3-[4′-Methyl-6′-(4-trifluoromethyl-phenyl)-[2,2′]bipyridinyl-6-yl]-benzenesulfonamide]: 229 °C.
For `Cc1cc(-c2ccc(C(F)(F)F)cc2)cc(-c2ccnc(-c3cnc(N)nc3)n2)n1` [Example 240, 4-[6-Methyl-4-(4-trifluoromethyl-phenyl)-pyridin-2-yl]-[2,5′]bipyrimidinyl-2′-ylamine] the value was 264 °C.
